The text below walks through data of ChEMBL document CHEMBL1201862, “PubChem BioAssay data set” (2004).

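Exposure lasted 48 hours, with cells grown in 96-well plates and compounds tested at five concentrations. The concentration for 50% growth inhibition is given as GI50.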 The source made the active and inactive calls. No stated cut-off is given here; in the data, active = GI50 up to about 1.1 µM and inactive = higher.

Experiment in all cases: NCI tumour cell line growth inhibition, 48 h
The subject of test [1] is CAKI-1.
For test [2], the system named is K562.
Test [3] relates to HOP-62.
The test system of test [4] is SK-MEL-28.
Test [5] has as its system SF-295.
For test [6], the system named is RXF 393.
Test [7] relates to Malme-3M.
In test [8] the test system is SN12C.
Test [9] has as its system HT-29.
In test [10] the test system is XF498.
In test [11] the test system is SK-MEL-2.
In test [12] the test system is M14.
The test system of test [13] is A549.
In test [14] the test system is SNB-78.
Test [15] has as its system RPMI-8226.
The test system of test [16] is HCC 2998.
The test system of test [17] is COLO 205.
Test [18] deals with TK-10.
In test [19] the test system is HCT-15.
In test [20] the test system is MDA-MB-435.

`CCC1(Br)C(=O)NC(=O)N(C2CC(O)C(CO)O2)C1N=[N+]=[N-]` (configuration not stated): the GI50 in [1] is > 100 µM (inactive); in test [2], > 100 µM (inactive); in [3], > 100 µM (inactive); in test [4], > 100 µM (inactive); in test [5] it was > 100 µM (inactive); in [6], 66.7 µM (inactive). The GI50 in [7], in test [8], in [9], in test [10], in test [11] and in test [12] was > 100 µM (inactive) throughout. Besides, the GI50 in test [13], in test [14], in test [15], in test [16], in test [17] and in [18] was > 100 µM (inactive) throughout.
Consider `COc1cc(C(=O)c2cocc2C(=O)c2ccc3c(c2)OCO3)cc(OC)c1OC`, for which the GI50 in test [1] was 0.378 µM (active); in [2] it was 0.151 µM (active); in [3] it was 1 µM (active); in test [4], 1.46 µM (inactive); in test [5], 0.351 µM (active); in test [6], 0.67 µM (active). Besides, the GI50 in test [7] was 0.312 µM (active); in test [8], 1.49 µM (inactive); in test [9], 0.244 µM (active); in [10], 1.34 µM (inactive); in test [11], 0.619 µM (active); in test [12], 1 µM (active). Also, the GI50 in [19] is 0.347 µM; in test [13], 5.26 µM (inactive); in [15], 0.628 µM (active); in [16], 3.72 µM (inactive); in test [20], 0.0916 µM (active); in test [17], 4.91 µM (inactive). Besides, the GI50 in [18] is 3.18 µM (inactive).
In the case of `CC(C)(C)CC(C)(C)c1cc2c(O)c(c1)Cc1cc(C(C)(C)CC(C)(C)C)cc(c1O)Cc1cc(C(C)(C)CC(C)(C)C)cc(c1O)Cc1cc(C(C)(C)CC(C)(C)C)cc(c1O)Cc1cc(C(C)(C)CC(C)(C)C)cc(c1O)C2`, the GI50 in test [2], in [3], in [4], in test [5], in [6] and in test [7] was > 100 µM (inactive) in each case. The GI50 in test [8] is > 100 µM (inactive); in test [9], > 100 µM (inactive); in [10], > 100 µM (inactive); in [11], > 100 µM (inactive); in test [12] it was > 100 µM (inactive); in test [19] it was over 100 µM. Further, the GI50 in test [13], in test [14], in [15], in test [16], in test [17] and in [18] was > 100 µM (inactive) throughout.
Consider `Cc1ccc(C)c(N2C(=O)C(=O)C(c3nc4ccccc4s3)/C(=N/N)C2=O)c1` (configuration not stated), for which the GI50 in test [1], in [2], in test [3], in test [4], in test [6] and in test [7] was > 100 µM (inactive) each time. The GI50 in test [8] was > 100 µM (inactive); in test [9] it was > 100 µM (inactive); in test [10] it was > 100 µM (inactive); in test [11] it was > 100 µM (inactive); in test [12] it was > 100 µM (inactive); in [19], over 100 µM. For the same molecule, the GI50 is > 100 µM (inactive) in test [13]; > 100 µM (inactive) in test [14]; > 100 µM (inactive) in test [15]; > 100 µM (inactive) in test [16]; > 39.3 µM (inactive) in [17]; > 100 µM (inactive) in test [18].
Consider `Cc1c(OCCCOc2ccc3c(=O)cc(-c4ccccc4)oc3c2C)ccc2c(=O)cc(-c3ccccc3)oc12`, for which the GI50 in test [1] is > 100 µM (inactive); in test [2], 59.2 µM (inactive); in test [3], 61.1 µM (inactive); in [4], > 100 µM (inactive); in test [5], > 100 µM (inactive); in test [6] it was 74 µM (inactive). In addition, the GI50 is > 100 µM (inactive) in [7]; > 100 µM (inactive) in test [9]; > 100 µM (inactive) in test [10]; > 100 µM (inactive) in test [11]; > 100 µM (inactive) in test [12]; over 100 µM in test [19]. Moreover, the GI50 in test [13] was > 100 µM (inactive); in test [14], 51.2 µM (inactive); in test [15], > 100 µM (inactive); in [18], > 100 µM (inactive).
For the molecule `CC(C)c1ccc(/C=C/c2cc(C(=O)NNC(=O)NC3CCCCC3)nc(S)n2)cc1`, the GI50 in test [1], in [3], in test [4], in [5], in [6] and in [7] was > 100 µM (inactive) each time. Moreover, the GI50 was > 100 µM (inactive) in test [8]; > 100 µM (inactive) in test [9]; > 100 µM (inactive) in [10]; > 100 µM (inactive) in [12]; over 100 µM in test [19]; > 100 µM (inactive) in test [13]. In addition, the GI50 in [14], in test [15], in test [16], in test [17] and in [18] was > 100 µM (inactive) each time.
For the molecule `COc1nc2c(OC)cccc2c(OC)c1C=O`, the GI50 in test [2] was 53.7 µM (inactive); in [3] it was 22.1 µM (inactive); in test [4], > 100 µM (inactive); in [5] it was > 100 µM (inactive); in test [6], > 100 µM (inactive); in test [7], > 100 µM (inactive). Moreover, the GI50 in test [8] is > 100 µM (inactive); in test [9], > 100 µM (inactive); in test [10], 18.8 µM (inactive); in [11] it was > 100 µM (inactive); in test [12], > 100 µM (inactive); in test [19], over 100 µM. For the same molecule, the GI50 in [13], in test [15], in [17] and in [18] was > 100 µM (inactive) throughout.
With `O=C(O)Cc1ccc2c(c1O)C(=O)c1c(ccc(CC(=O)O)c1O)C2=O`, the GI50 in test [1], in [2], in [3], in [4], in [5] and in test [7] was > 100 µM (inactive) each time. In addition, the GI50 in test [8] is > 100 µM (inactive); in test [9] it was > 100 µM (inactive); in [10], > 100 µM (inactive); in test [11], > 100 µM (inactive); in test [12], > 100 µM (inactive); in test [19], over 100 µM. Also, the GI50 in test [13], in test [14], in [15], in test [16], in test [17] and in test [18] was > 100 µM (inactive) in each case.
In the case of `Cc1ccc(S(=O)(=O)O/N=C2\CCC\C2=C/c2ccccc2)cc1`, the GI50 in test [1] was 17.6 µM (inactive); in test [2], 26.7 µM (inactive); in [3], 36.6 µM (inactive); in [4] it was 11.1 µM (inactive); in test [5] it was 22.8 µM (inactive); in test [6] it was 20.3 µM (inactive). The GI50 in test [8] was 45 µM (inactive); in test [9] it was 25.3 µM (inactive); in [10], 18.5 µM (inactive); in [11], 16.9 µM (inactive); in [12], 21.3 µM (inactive); in test [19], 22.9 µM. The GI50 was 29.4 µM (inactive) in test [13]; 1.31 µM (inactive) in [14]; 16 µM (inactive) in test [15]; 17.7 µM (inactive) in test [16]; 16.3 µM (inactive) in [17]; 16.6 µM (inactive) in test [18].
With `Cc1ccccc1C(=O)c1cc(O)ccc1O`, the GI50 in [1] is > 100 µM (inactive); in [2] it was 35 µM (inactive); in [3] it was > 100 µM (inactive); in test [5] it was > 100 µM (inactive); in test [6], > 100 µM (inactive); in test [7], > 100 µM (inactive). Moreover, the GI50 in [8] is > 100 µM (inactive); in test [9], 35.9 µM (inactive); in [10] it was > 100 µM (inactive); in test [11] it was 34.6 µM (inactive); in test [12], > 100 µM (inactive); in test [19], 50.1 µM. Moreover, the GI50 in test [13] was > 100 µM (inactive); in test [14] it was > 100 µM (inactive); in test [15], > 100 µM (inactive); in test [16] it was 53.8 µM (inactive); in [17] it was 50.6 µM (inactive); in [18], > 100 µM (inactive).
For the molecule `Nc1c(Br)c(=O)[nH]c(=O)n1COCCO`, the GI50 in [1], in test [2], in test [3], in test [4], in [5] and in test [6] was > 100 µM (inactive) throughout. The GI50 in test [7], in test [8], in [9], in test [10], in test [12] and in test [13] was > 100 µM (inactive) throughout. Moreover, the GI50 in test [14], in [16], in test [17] and in test [18] was > 100 µM (inactive) each time.
